Assays:
[1] = test system: RKO (RKOp27) human colon adenocarcinoma cells; experiment: Alamar Blue cell viability assay, anti-proliferative/cytotoxic activity on proliferating RKO subclones; assay type: cell-based; conditions: RKOp27, 72 h, RKO p27 uninduced (proliferating) cells, value = class bound given in Table A, read-out: −logIC50 RKO p27 uninduced (proliferating) (converted)
Outline: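 RKOp27 subclones (5000 cells/well) were exposed 24 h after seeding to semi-log compound dilutions in DMEM with 10% FCS, in quadruplicate, for 72 h at 37 °C. Viability was read by Alamar Blue fluorescence (544/590 nm) relative to untreated cells (1% DMSO medium). IC50 came from concentration-effect curves and is reported as −log IC50 [mol/l].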

[2] = test system: subclones of RKO colon adenocarcinoma cells (RKOp27 or RKOp21) arrested by Ponasterone A; experiment: Alamar Blue cell viability assay, cell cycle specific mode of action: cells arrested by ectopic p27Kip1 induced by Ponasterone A versus proliferating cells; assay type: cell-based; conditions: Homo sapiens, RKO p27 induced (arrested) cells, 10 μM Ponasterone A, 72 hours, value = class bound given in Table A, read-out: −logIC50 RKO p27 induced (arrested) (converted)
Outline: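 RKOp27 or RKOp21 cells, 15000/well in DMEM/10% FCS, either arrested by p27Kip1 induced with 10 μM Ponasterone A or proliferating without inducer; compound added after 24 h, 72 h at 37° C. Alamar Blue fluorescence (544/590 nm), viability as % of untreated cells; −log IC50 reported.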

SMILES	IC50 [1]	IC50 [2]
N#Cc1c(NC(=O)/C=C/c2cccnc2)sc2c1CCC(OC(=O)N1CC[C@@H](O)[C@@H](O)C1)C2 (stereo partly drawn) [Example 125, cis-3-, 4-Dihydroxy-piperidine-1-carboxylic acid 3-cyano-2-((E)-3-pyridin-3-yl-allanoylamino)-4,5,6,7-tetrahydro-benzo[b]thiophen-6-yl ester]	501 to 2000 nM	≥ 100000 nM
COc1cccc(CCC(=O)Nc2sc3c(c2C#N)CCC(OC(=O)NCc2nccn2C)C3)c1 (stereo not shown) [Example 261, (1-Methyl-1H-imidazol-2-ylmethyl)-carbamic acid 3-cyano-2-[3-(3-methoxy-phenyl)-propanoylamino]-4,5,6,7-tetrahydro-benzo[b]thiophen-6-yl ester]	≤ 501 nM	≥ 100000 nM
N#Cc1c(NC(=O)CCc2cccnc2)sc2c1CCC(OC(=O)NC1CC1)C2 (stereo not shown) [Example 161, Cyclopropyl-carbamic acid 3-cyano-2-(3-pyridin-3-yl-propanoylamino)-4,5,6,7-tetrahydro-benzo[b]thiophen-6-yl ester]	501 to 2000 nM	≥ 50100 nM
CCNC(=O)OCC1CCc2c(sc(NC(=O)CC(C)c3cccnc3)c2C#N)C1 (stereo not shown) [Example 278, Ethyl-carbamic acid 3-cyano-2-(3-pyridin-3-yl-butanoylamino)-4,5,6,7-tetrahydro-benzo[b] thiophen-6-ylmethyl ester]	501 to 2000 nM	≥ 100000 nM
N#Cc1c(NC(=O)/C=C/c2cccnc2)sc2c1CC[C@@H](COC(=O)N1CCC[C@H](O)C1)C2 [Example 87d, (S)-3-Hydroxy-piperidine-1-carboxylic acid (R)-3-cyano-2-((E)-3-pyridin-3-yl-allanoylamino)-4,5,6,7-tetrahydro-benzo[b]thiophen-6-ylmethyl ester]	≤ 501 nM	≥ 100000 nM
CCOc1ccccc1CCC(=O)Nc1sc2c(c1C#N)CCC(OC(=O)NCc1ccno1)C2 (stereo not shown) [Example 207, Isoxazol-5-ylmethyl-carbamic acid 3-cyano-2-[3-(2-ethoxy-phenyl)-propanoylamino]-4,5,6,7-tetrahydro-benzo[b]thiophen-6-yl ester]	≤ 501 nM	≥ 100000 nM
COC(=O)OC1CCc2c(sc(NC(=O)CCc3cccnc3)c2C#N)C1 (stereo not shown) [Example 186, Carbonic acid 3-cyano-2-(3-pyridin-3-yl-propanoylamino)-4,5,6,7-tetrahydro-benzo[b]thiophen-6-yl ester methyl ester]	501 to 2000 nM	≥ 100000 nM
COC1CN(C(=O)OC2CCc3c(sc(NC(=O)/C=C/c4cccnc4)c3C#N)C2)C1 (stereo not shown) [Example 118, 3-Methoxy-azetidine-1-carboxylic acid 3-cyano-2-((E)-3-pyridin-3-yl-allanoylamino)-4,5,6,7-tetrahydro-benzo[b]thiophen-6-yl ester]	501 to 2000 nM	≥ 100000 nM
N#Cc1c(NC(=O)/C=C/c2cccnc2)sc2c1CC[C@H](COC(=O)N1CCC(O)CC1)C2 [Example 114a, 4-Hydroxy-piperidine-1 - carboxylic acid (S)-3-cyano-2-((E)-3-pyridin-3-yl-allanoylamino)-4,5,6,7-tetrahydro-benzo[b]thiophen-6-ylmethyl ester]	≤ 501 nM	≥ 100000 nM
CC(CC(=O)Nc1sc2c(c1C#N)CCC(COC(=O)NCCc1cccnc1)C2)c1ccccc1 (stereo not shown) [Example 307, (2-Pyridin-3-yl-ethyl)-carbamic acid 3-cyano-2-(3-phenyl-butanoylamino)-4,5,6,7-tetrahydro-benzo[b]thiophen-6-ylmethyl ester]	≤ 501 nM	≥ 50100 nM
COc1cccc(CCC(=O)Nc2sc3c(c2C#N)CCC(COC(=O)NC2CC2)C3)c1 (stereo not shown) [Example 253, Cyclopropyl-carbamic acid 3-cyano-2-[3-(3-methoxy-phenyl)-propanoylamino]-4,5,6,7-tetrahydro-benzo[b]thiophen-6-ylmethyl ester]	≤ 501 nM	≥ 100000 nM
CN(CC(O)CO)C(=O)OC1CCc2c(sc(NC(=O)/C=C/c3cccnc3)c2C#N)C1 (stereo not shown) [Example 126, (2,3-Dihydroxy-propyl)-methyl-carbamic acid 3-cyano-2-((E)-3-pyridin-3-yl-allanoylamino)-4,5,6,7-tetrahydro-benzo[b]thiophen-6-yl ester]	501 to 2000 nM	≥ 100000 nM
COCC1CCCN1C(=O)OCC1CCc2c(sc(NC(=O)/C=C/c3cccnc3)c2C#N)C1 (stereo not shown) [Example 89, 2-(Methoxymethyl) pyrrolidine-1-carboxylic acid 3-cyano-2-((E)-3-pyridin-3-yl-allanoylamino)-4,5,6,7-tetrahydro-benzo[b]thiophen-6-ylmethyl ester]	≤ 501 nM	≥ 100000 nM
CC(CC(=O)Nc1sc2c(c1C#N)CCC(OC(=O)NCc1ccncc1)C2)c1ccccc1 (stereo not shown) [Example 289, Pyridin-4-ylmethyl-carbamic acid 3-cyano-2-(3-phenyl-butanoylamino)-4,5,6,7-tetrahydro-benzo[b] thiophen-6-yl ester]	≤ 501 nM	≥ 10000 nM
Cc1cc(CNC(=O)OCC2CCc3c(sc(NC(=O)CC(C)c4cccnc4)c3C#N)C2)on1 (stereo not shown) [Example 370, (3-Methyl-isoxazol-5-ylmethyl)-carbamic acid 3-cyano-2-(3-pyridin-3-yl-butanoylamino)-4,5,6,7-tetrahydro-benzo[b] thiophen-6-ylmethyl ester]	501 to 2000 nM	≥ 50100 nM
COC(=O)[C@@H]1CCCN1C(=O)OC1CCc2c(sc(NC(=O)/C=C/c3cccnc3)c2C#N)C1 (stereo partly drawn) [Example 81, 2-(S)-Pyrrolidine-1,2-dicarboxylic acid 1-[3-cyano-2-((E)-3-pyridin-3-yl-allanoylamino)-4,5,6,7-tetrahydro-benzo[b]thiophen-6-yl] ester 2-methyl ester]	501 to 2000 nM	≥ 100000 nM
COc1cccc(CCC(=O)Nc2sc3c(c2C#N)CCC(OC(=O)NCc2ccnn2C)C3)c1 (stereo not shown) [Example 221, (2-Methyl-2H-pyrazol-3-ylmethyl)-carbamic acid 3-cyano-2-[3-(3-methoxy-phenyl)-propanoylamino]-4,5,6,7-tetrahydro-benzo[b]thiophen-6-yl ester]	≤ 501 nM	≥ 100000 nM
CCOc1ccccc1CCC(=O)Nc1sc2c(c1C#N)CCC(COC(=O)NCc1nccs1)C2 (stereo not shown) [Example 199, Thiazol-2-ylmethyl-carbamic acid 3-cyano-2-[3-(2-ethoxy-phenyl)-propanoylamino]-4,5,6,7-tetrahydro-benzo[b]thiophen-6-ylmethyl ester]	≤ 501 nM	≥ 100000 nM
CC(C)NC(=O)OCC1CCc2c(sc(NC(=O)/C=C/c3cccnc3)c2C#N)C1 (stereo not shown) [Example 101, Isopropyl-carbamic acid 3-cyano-2-((E)-3-pyridin-3-yl-allanoylamino)-4,5,6,7-tetrahydro-benzo[b]thiophen-6-ylmethyl ester]	≤ 501 nM	≥ 100000 nM
CC(CC(=O)Nc1sc2c(c1C#N)CCC(COC(=O)NCc1ccnn1C)C2)c1ccccc1 (stereo not shown) [Example 313, (2-Methyl-2H-pyrazol-3-ylmethyl)-carbamic acid 3-cyano-2-(3-phenyl-butanoylamino)-4,5,6,7-tetrahydro-benzo[b] thiophen-6-ylmethyl ester]	≤ 501 nM	≥ 50100 nM
Cc1ccncc1/C=C/C(=O)Nc1sc2c(c1C#N)CCC(COC(=O)N1CC(O)C1)C2 (stereo not shown) [Example 132, 3-Hydroxy-azetidine-1-carboxylic acid 3-cyano-2-[(E)-3-(4-methyl-pyridin-3-yl)-allanoylamino]-4,5,6,7-tetrahydro-benzo[b]thiophen-6-ylmethyl ester]	501 to 2000 nM	≥ 100000 nM
COC1CN(C(=O)OCC2CCc3c(sc(NC(=O)/C=C/c4cccnc4)c3C#N)C2)C1 (stereo not shown) [Example 115, 3-Methoxy-azetidine-1-carboxylic acid 3-cyano-2-((E)-3-pyridin-3-yl-allanoylamino)-4,5,6,7-tetrahydro-benzo[b]thiophen-6-ylmethyl ester]	501 to 2000 nM	≥ 100000 nM
CCN(CC)C(=O)OCC1CCc2c(sc(NC(=O)/C=C/c3cccnc3)c2C#N)C1 (stereo not shown) [Example 82, Diethyl-carbamic acid 3-cyano-2-((E)-3-pyridin-3-yl-allanoylamino)-4,5,6,7-tetrahydro-benzo[b]thiophen-6-ylmethyl ester]	≤ 501 nM	≥ 100000 nM
COc1cccc(C(C)CC(=O)Nc2sc3c(c2C#N)CCC(COC(=O)NCc2cnn(C)c2)C3)c1 (stereo not shown) [Example 333, (1-Methyl-1H-pyrazol-4-ylmethyl)-carbamic acid 3-cyano-2-[3-(3-methoxy-phenyl)-butanoylamino]-4,5,6,7-tetrahydro-benzo[b]thiophen-6-ylmethyl ester]	501 to 2000 nM	≥ 10000 nM
CC(CC(=O)Nc1sc2c(c1C#N)CCC(OC(=O)OCc1nccs1)C2)c1ccccc1 (stereo not shown) [Example 368, Carbonic acid 3-cyano-2-(3-phenyl-butanoylamino)-4,5,6,7-tetrahydro-benzo[b]thiophen-6-yl ester thiazol-2-ylmethyl ester]	501 to 2000 nM	≥ 50100 nM
Cc1cc(CNC(=O)OC[C@@H]2CCc3c(sc(NC(=O)/C=C/c4cccnc4)c3C#N)C2)no1 [Example 47b, (5-Methyl-isoxazol-3-ylmethyl)-carbamic acid (R)-3-cyano-2-((E)-3-pyridin-3-yl-allanoylamino)-4,5,6,7-tetrahydro-benzo[b]thiophen-6-ylmethyl ester]	≤ 501 nM	≥ 100000 nM

From US20110044938A1 (NYCOMED GMBH, priority 2006, published 2011)
